Reference: patent US20230114728A1 (Venatorx Pharmaceuticals, Inc., priority 2019, published 2023)
≈ marks a conversion by molar mass, not a printed value. Like-named read-outs stand apart in the source and are kept apart here.

Tests used:
Assay type in all cases: cell-based
P. aeruginosa CDC-0110 = assay: Broth microdilution MIC in iron-depleted CAMHB (IDM); conditions: Pseudomonas aeruginosa, CDC0110, read-out: Minimum Inhibitory Concentration, P. aeruginosa CDC-0110
Summary of the method: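 MIC is the lowest well showing no visible growth after 16-20 h at 37 °C, starting from 2-8×10^5 CFU/mL in 2-fold serial compound dilutions. Medium: cation-adjusted Mueller Hinton broth iron-depleted with Chelex 100, supplemented back with Ca, Mg and Zn, pH 7.3; CLSI protocol.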

N. gonorrhoeae FA1090 = assay: Liquid broth MIC in Fastidious broth; conditions: Neisseria gonorrhoeae, Fastidious broth
Summary of the method: (§1)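 Colonies were swabbed from chocolate agar after 24 h growth and standardised by optical density at 600 nm. Compounds were serially diluted twofold in Fastidious broth, and bacteria added to give 5×10^5 CFU/mL. After about 24 h at 36 °C in 5% CO2, the lowest concentration allowing under 10% growth was taken as MIC.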

N. gonorrhoeae WHO G = assay: Liquid broth MIC in Fastidious broth; conditions: Neisseria gonorrhoeae, Fastidious broth
Summary of the method: as §1

N. gonorrhoeae WHO Q = assay: Liquid broth MIC in Fastidious broth; conditions: Neisseria gonorrhoeae
Summary of the method: (§2)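 Broth microdilution against gonococcal strains expressing mosaic PBP2, starting inoculum 5×10^5 CFU/mL in Fastidious broth. Incubation runs ~24 h at 36 °C under 5% CO2, with MIC scored visually at <10% of full growth.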

[1] = tested on: N. gonorrhoeae ATCC 49226; assay: Liquid broth MIC in Fastidious broth; conditions: Neisseria gonorrhoeae, ATCC49226, Fastidious broth
Summary of the method: as §1

N. gonorrhoeae H041 = assay: Liquid broth MIC in Fastidious broth; conditions: Neisseria gonorrhoeae
Summary of the method: as §2

N. gonorrhoeae WHO Z = assay: Liquid broth MIC in Fastidious broth; conditions: Neisseria gonorrhoeae
Summary of the method: as §2

N. gonorrhoeae WHO K = assay: Liquid broth MIC in Fastidious broth; conditions: Neisseria gonorrhoeae
Summary of the method: as §2

N. gonorrhoeae WHO L = assay: Liquid broth MIC in Fastidious broth; conditions: Neisseria gonorrhoeae, Fastidious broth
Summary of the method: as §1

[2] = N. gonorrhoeae FA1090, read-out: Minimum Inhibitory Concentration, FA1090
[3] = N. gonorrhoeae WHO G, read-out: Minimum Inhibitory Concentration, WHO G
[4] = read-out: Minimum Inhibitory Concentration, WHO Q
[5] = N. gonorrhoeae ATCC 49226, read-out: Minimum Inhibitory Concentration, ATCC 49226
[6] = H041, read-out: Minimum Inhibitory Concentration, H041
[7] = read-out: Minimum Inhibitory Concentration, WHO Z
[8] = read-out: Minimum Inhibitory Concentration, WHO K
[9] = N. gonorrhoeae WHO L, read-out: Minimum Inhibitory Concentration, WHO L
[10] = N. gonorrhoeae strain FA1090, read-out: Minimum Inhibitory Concentration, N. gonorrhoeae FA1090
[11] = N. gonorrhoeae strain WHO G, read-out: Minimum Inhibitory Concentration, N. gonorrhoeae WHO G
[12] = read-out: Minimum Inhibitory Concentration, N. gonorrhoeae WHO Q
[13] = N. gonorrhoeae strain ATCC 49226, read-out: Minimum Inhibitory Concentration, N. gonorrhoeae ATCC 49226
[14] = H041, read-out: Minimum Inhibitory Concentration, N. gonorrhoeae H041
[15] = read-out: Minimum Inhibitory Concentration, N. gonorrhoeae WHO Z
[16] = read-out: Minimum Inhibitory Concentration, N. gonorrhoeae WHO K
[17] = N. gonorrhoeae strain WHO L, read-out: Minimum Inhibitory Concentration, N. gonorrhoeae WHO L

Compound | MIC (P. aeruginosa CDC-0110) | MIC (N. gonorrhoeae FA1090; [2]) | MIC (N. gonorrhoeae WHO G; [3]) | MIC (N. gonorrhoeae WHO Q; [4]) | MIC [1, 5] | MIC (N. gonorrhoeae H041; [6]) | MIC (N. gonorrhoeae WHO Z; [7]) | MIC (N. gonorrhoeae WHO K; [8]) | MIC (N. gonorrhoeae WHO L; [9]) | MIC (N. gonorrhoeae FA1090; [10]) | MIC (N. gonorrhoeae WHO G; [11]) | MIC (N. gonorrhoeae WHO Q; [12]) | MIC [1, 13] | MIC (N. gonorrhoeae H041; [14]) | MIC (N. gonorrhoeae WHO Z; [15]) | MIC (N. gonorrhoeae WHO K; [16]) | MIC (N. gonorrhoeae WHO L; [17])
CCN1CCN(C(=O)N[C@@H](C(=O)N[C@H]2Cc3ccc(F)c(C(=O)O)c3OB2O)c2c(Cl)cc(O)c(O)c2F)C(=O)C1=O (single isomer, unassigned) [Example 207] | 2 to 4 µg/mL (≈ 3.27 to 6.55 µM) | 4 to 8 µg/mL (≈ 6.55 to 13.1 µM) | 16 to 32 µg/mL (≈ 26.2 to 52.4 µM) | > 64 µg/mL | 16 to 32 µg/mL (≈ 26.2 to 52.4 µM) | > 64 µg/mL | 16 to 32 µg/mL (≈ 26.2 to 52.4 µM) | > 64 µg/mL | > 64 µg/mL |  |  |  |  |  |  |  | 
CCN1CCN(C(=O)N[C@@H](C(=O)N[C@H]2Cc3ccc(F)c(C(=O)O)c3OB2O)c2ccc(O)c(O)c2)C(=O)C1=O [Example 211, (R)-3-((R)-2-(3,4-dihydroxyphenyl)-2-(4-ethyl-2,3-dioxopiperazine-1-carboxamido)acetamido)-7-fluoro-2-hydroxy-3,4-dihydro-2H-benzo[e][1,2]oxaborinine-8-carboxylic acid] | 2 to 4 µg/mL (≈ 3.58 to 7.16 µM) | 4 to 8 µg/mL (≈ 7.16 to 14.3 µM) | 16 to 32 µg/mL (≈ 28.7 to 57.3 µM) | 16 to 32 µg/mL (≈ 28.7 to 57.3 µM) | 16 to 32 µg/mL (≈ 28.7 to 57.3 µM) | 16 to 32 µg/mL (≈ 28.7 to 57.3 µM) | 16 to 32 µg/mL (≈ 28.7 to 57.3 µM) | 16 to 32 µg/mL (≈ 28.7 to 57.3 µM) | > 64 µg/mL |  |  |  |  |  |  |  | 
CCN1CCN(C(=O)N[C@@H](C(=O)N[C@H]2Cc3cc(Cl)c(F)c(C(=O)O)c3OB2O)c2c(F)cc(O)c(O)c2Cl)C(=O)C1=O [Example 191, (R)-6-chloro-3-((R)-2-(2-chloro-6-fluoro-3,4-dihydroxyphenyl)-2-(4-ethyl-2,3-dioxopiperazine-1-carboxamido)acetamido)-7-fluoro-2-hydroxy-3,4-dihydro-2H-benzo[e][1,2]oxaborinine-8-carboxylic acid] | 2 to 4 µg/mL (≈ 3.1 to 6.2 µM) |  |  |  |  |  |  |  |  | 16 to 32 µg/mL (≈ 24.8 to 49.6 µM) | > 64 µg/mL | > 64 µg/mL | > 64 µg/mL | > 64 µg/mL | > 64 µg/mL | > 64 µg/mL | > 64 µg/mL
CS(=O)(=O)N1CCN(C(=O)NC(C(=O)N[C@H]2Cc3ccc(F)c(C(=O)O)c3OB2O)c2c(Cl)cc(O)c(O)c2F)C1=O (stereo partly drawn) [Example 208, (3R)-3-(2-(6-chloro-2-fluoro-3,4-dihydroxyphenyl)-2-(3-(methylsulfonyl)-2-oxoimidazolidine-1-carboxamido)acetamido)-7-fluoro-2-hydroxy-3,4-dihydro-2H-benzo[e][1,2]oxaborinine-8-carboxylic acid] | 8 to 16 µg/mL (≈ 12.6 to 25.3 µM) | 4 to 8 µg/mL (≈ 6.32 to 12.6 µM) | 16 to 32 µg/mL (≈ 25.3 to 50.6 µM) | > 64 µg/mL | > 64 µg/mL | > 64 µg/mL | > 64 µg/mL | > 64 µg/mL | > 64 µg/mL |  |  |  |  |  |  |  | 
Nc1nc(C(NC(=O)N2CCN(CCNC(=O)c3ccc(O)c(O)c3Cl)C(=O)C2=O)C(=O)N[C@H]2Cc3ccc(F)c(C(=O)O)c3OB2O)c(F)s1 (stereo partly drawn) [Example 4, (3R)-3-(2-(2-amino-5-fluorothiazol-4-yl)-2-(4-(2-(2-chloro-3,4-dihydroxybenzamido)ethyl)-2,3-dioxopiperazine-1-carboxamido)acetamido)-7-fluoro-2-hydroxy-3,4-dihydro-2H-benzo[e][1,2]oxaborinine-8-carboxylic acid] | 0.25 µg/mL (≈ 0.333 µM) |  |  |  |  |  |  |  |  | 4 to 8 µg/mL (≈ 5.32 to 10.6 µM) | 4 to 8 µg/mL (≈ 5.32 to 10.6 µM) |  | 16 to 32 µg/mL (≈ 21.3 to 42.6 µM) | > 64 µg/mL |  | > 64 µg/mL | > 64 µg/mL
C[C@H]1CN(CCNC(=O)c2ccc(O)c(O)c2Cl)C(=O)C(=O)N1C(=O)NC(C(=O)N[C@H]1Cc2cccc(C(=O)O)c2OB1O)c1ncc(O)cc1F (stereo partly drawn) [Example 2, (3R)-3-(2-((S)-4-(2-(2-chloro-3,4-dihydroxybenzamido)ethyl)-6-methyl-2,3-dioxopiperazine-1-carboxamido)-2-(3-fluoro-5-hydroxypyridin-2-yl)acetamido)-2-hydroxy-3,4-dihydro-2H-benzo[e][1,2]oxaborinine-8-carboxylic acid] | 2 to 4 µg/mL (≈ 2.69 to 5.38 µM) |  |  |  |  |  |  |  |  | 4 to 8 µg/mL (≈ 5.38 to 10.8 µM) | > 64 µg/mL |  | > 64 µg/mL | > 64 µg/mL |  | > 64 µg/mL | > 64 µg/mL
CCN1CCN(C(=O)N[C@H](C(=O)N[C@H]2Cc3ccc(F)c(C(=O)O)c3OB2O)c2ccc(O)c(O)c2)C(=O)C1=O [Example 210, (R)-3-((S)-2-(3,4-dihydroxyphenyl)-2-(4-ethyl-2,3-dioxopiperazine-1-carboxamido)acetamido)-7-fluoro-2-hydroxy-3,4-dihydro-2H-benzo[e][1,2]oxaborinine-8-carboxylic acid] | > 128 µg/mL | > 64 µg/mL | > 64 µg/mL | > 64 µg/mL | > 64 µg/mL | > 64 µg/mL | > 64 µg/mL | > 64 µg/mL | > 64 µg/mL |  |  |  |  |  |  |  | 
CS(=O)(=O)N1CCN(C(=O)N[C@@H](C(=O)N[C@H]2Cc3ccc(F)c(C(=O)O)c3OB2O)c2cc(F)c(O)c(O)c2Cl)C1=O (single isomer, unassigned) [Example 189] | 0.5 to 1 µg/mL (≈ 0.79 to 1.58 µM) |  |  |  |  |  |  |  |  | 4 to 8 µg/mL (≈ 6.32 to 12.6 µM) | 16 to 32 µg/mL (≈ 25.3 to 50.6 µM) | 16 to 32 µg/mL (≈ 25.3 to 50.6 µM) | 16 to 32 µg/mL (≈ 25.3 to 50.6 µM) | > 64 µg/mL | 16 to 32 µg/mL (≈ 25.3 to 50.6 µM) | 16 to 32 µg/mL (≈ 25.3 to 50.6 µM) | > 64 µg/mL
NCCCN1CCN(C(=O)N[C@@H](C(=O)N[C@H]2Cc3cc(Cl)c(F)c(C(=O)O)c3OB2O)c2c(F)cc(O)c(O)c2Cl)C(=O)C1=O [Example 190, (R)-3-((R)-2-(4-(3-aminopropyl)-2,3-dioxopiperazine-1-carboxamido)-2-(2-chloro-6-fluoro-3,4-dihydroxyphenyl)acetamido)-6-chloro-7-fluoro-2-hydroxy-3,4-dihydro-2H-benzo[e][1,2]oxaborinine-8-carboxylic acid] | 2 to 4 µg/mL (≈ 2.97 to 5.93 µM) |  |  |  |  |  |  |  |  | 16 to 32 µg/mL (≈ 23.7 to 47.5 µM) | > 64 µg/mL | > 64 µg/mL | > 64 µg/mL | > 64 µg/mL | > 64 µg/mL | > 64 µg/mL | > 64 µg/mL
